Measured values as given in patent US20130190345A1, “MATRINIC ACID/MATRINE DERIVATIVES AND PREPARATION METHODS AND USES THEREOF” (priority 2010, published 2013).
Values after ≈ are worked out from the molar mass of the structure shown.

Experiments:
Hsc70 [1] = experiment: Detection of Hsc70 gene expression level upon action of compound on 2.2.15 cells (real-time fluorescent quantified PCR); type: cell-based; set-up: Hsc70 mRNA / Hsc70 down-regulation rate (%): unit not given here; conditions: 2.2.15 cells; for Hsc70 mRNA: down-regulation of liver cell Hsc70 gene; for Hsc70 inhibition rate (down-regulation of Hsc70 expression activity, expressed in relative OMT ratio): relative to OMT (= 1)
Procedure, shortened: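 2.2.15 cells grown 24 hr in 10% FCS medium, then exposed to compounds (20 mg/ml MEM stock diluted in medium) for 12, 24 or 36 hr; 400 μg/ml OMTR as control. Hsc70 mRNA and HBV DNA changes measured by real-time fluorescent quantitative PCR.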

2.2.15 cells = experiment: Drug TC50 by MTT detection; type: cell-based; conditions: Reed-Muench
Description: 2.2.15 cells (all cells were purchased from Vertex Pharmaceutical Co., USA) in exponential growth phase were inoculated on 96-well culture plate, 2×10^5 cells/well, added with culture media containing PFA diluted in different concentration rates, 3 wells for each diluted concentration, placed in 37° C. CO2—containing incubator and cultivated for 48 h; the supernatant was discarded, 100 μl of MTT (0.5 mg/ml) in culture medium was added, cultivation was continuously performed at 37° C. for 4 h; each well was added to 100 μl of 50% DMF-20% SDS destaining solution, stood at 37° C. overnight; ELISA was used to measure optical density at wavelength of 570 nm (0D570).
In each experiment, 3 cell control wells and 3 blank controls well were set, the results were used in formula, (cell control OD570-drug-medicated cell OD570)/cell control OD570, to calculate cell death rate (%), and Reed-Muench method was used to calculate half toxic concentration TC50.

HCV = experiment: Inhibition effects of compounds on HCV in Huh7.5 cultured cell after HCV infection; type: cell-based; conditions: for EC50 (half effective concentration): virus not given, stands beside HCV inhibition rate
Description: 1×10^5/ml Huh7.5 cells (purchased from Vertex Pharmaceutical Co., USA) were inoculated in an amount of 0.1 ml on 96-well culture plate, placed in an incubator with 37° C., 5% CO2 content and saturation humidity, and cultured for 24 h, HCV virus in 45 IU/cell was used to infect Huh7.5, different drug solutions (DM122) formulated with culture medium were added, and cell control and HCV infection control were set. Cultivation was continuously performed in the incubator with 37° C., 5% CO2 content and saturation humidity for 72 h, kit for RNA extraction was used to extract intracellular RNA, one-step qRT-PCR was used to determine intracellular contents of HCV and GAPDH RNA, and the inhibition effects of drug on HCV infection was analyzed. […] In comparison with the virus control group, the inhibition effects on HCV infection upon action of different drugs were analyzed. […] This experiment was repeated for 3 times, * indicated […] in comparison with control, ** indicated p<0.01 in comparison with control.

Hsc70 [2] = experiment: Inhibition effects of compound on Hsc70 in Huh7.5 cultured cell (qRT-PCR, Western blotting); type: cell-based; set-up: key to Hsc70 down-regulation rate (%): “—” represents no significant inhibition rate
Description: 2×10^5/ml Huh7.5 cells (purchased from Vertex Pharmaceutical Co., USA) were inoculated in an amount of 3 ml on 6-well culture plate, placed in an incubator with 37° C., 5% CO2 content, saturation humidity, and cultured for 24 h, added with different drug solutions (DM122) formulated with culture medium, and cell control was set. Cultivation was continuously performed in the incubator with 37° C., 5% CO2 content, saturation humidity for 24 h, a kit for RNA extraction was used to extract intracellular RNA from the cells, and one-step qRT-PCR was used to determine intracellular contents of Hsc70 and GAPDHRNA. After the cultivation of cells was performed for 48 h, the cells were digested and harvested, then the cells were split with CytoBuster™ Protein Extraction Buffer that contained many kinds of protease inhibitors, total intracellular proteins were extracted, and Western blotting was used to analyze the contents of Hsc70 and GAPDH proteins. In comparison with the cell control, the inhibition effects on Hsc70 upon action of different drugs were analyzed.

wild type HBV = experiment: Inhibition effects on wild type HBV (Real-time PCR of HBV DNA, Huh-7.5 cells); type: cell-based; conditions: 36 h; lamivudine 0.16n/mL, compound 6b 37 μg/mL
Description: (§1) Lamivudine-resistant strain (LRS M204V L180M) was used to transfect Huh-7.5 cells, lamivudine was used as positive control, lamivudine (0.16n/mL) and compound 6b (37 μg/mL) were separately used to treat wild type and LRS type HBV, after 36 h, Real-time PCR was used to determine HBV DNA levels, respectively, and the results were shown in FIG. 12.

[3] = system: Lamivudine-resistant strain (LRS M204V L180M) HBV; experiment: Inhibition effects on drug resistant type HBV (Real-time PCR of HBV DNA, Huh-7.5 cells); type: cell-based; conditions: 36 h; lamivudine 0.16n/mL, compound 6b 37 μg/mL
Description: as §1

[4] = Acute toxicity of compound in mice; type: in vivo
Description: Kunming mice (purchased from Institute of Animal, Chinese Academy of Medical Sciences), 18-20 g, were weighed and randomly divided in groups, 10 mice per group, half male and half female, intraperitoneally injected with DM122 solution, in concentration of 0, 250 mg/kg, 500 mg/kg and 1000 mg/kg once. The death of animals was observed. On the 7th day, the animals were weighed, blood samples were taken and functional indexes (GOT, GPT, BUN and CRE) of liver and kidney in blood were determined.
Since Compound 6b had relatively high activity on anti-HBV and anti-HCV. The inventors had used it as a candidate of anti-hepatitis drug to evaluate its safety in animal body. Kunming mice were used for test of safety and acute toxicity of Compound 6b (13-methoxy matrine), via oral administration, administration doses were separately 250, 500 and 750 mg/kg once, then the mice were strictly monitored for 7 days.

Compound | Hsc70 mRNA (Hsc70 [1]) | melting point [°C] | CC50 (concentration to cause poisoning in half cells) (2.2.15 cells) [µg/mL] | HCV inhibition rate (%) (HCV; 200 ug/ml (upper data)) | HCV inhibition rate (%) (HCV; 400 ug/ml (lower data)) | EC50 (half effective concentration) (HCV) [µg/mL] | Hsc70 down-regulation rate (%) (Hsc70 [2]; 200 ug/ml (upper data)) | Hsc70 down-regulation rate (%) (Hsc70 [2]; 400 ug/ml (lower data)) | Hsc70 inhibition rate (down-regulation of Hsc70 expression activity, expressed in relative OMT ratio) (Hsc70 [1]) | also measured
COC1=CCC2C3CCCN4CCCC(CN2C1=O)C34 (stereo not drawn) [Compound 10, 14-methoxy sophocarpine] | 39.7 ± 0.16 | 110 to 111 |  |  |  |  |  |  |  | 
O=C1C(O)C(O)CC2C3CCCN4CCCC(CN12)C34 (stereo not drawn) [Compound 8, 13,14-dihydroxyl matrine] | 38.9 ± 0.13 | 156 to 158 |  |  |  |  |  |  |  | 
O=C(O)CCCC1C2CCCN3CCCC(CN1Cc1ccc(F)cc1)C23 (stereo not drawn) [DM-132, N-(4-fluorobenzyl) matrinic acid] |  |  | 903.2 (≈ 2410 µM) | 67.7 ± 5.8 | 82.7 ± 5.6 | 52.86 (≈ 141 µM) | 80.1 ± 5.7% | 32.8 ± 26.8% | 0.99 | 
O=C(O)CCC[C@@H]1[C@H]2CCCN3CCC[C@@H](CN1Cc1ccc([N+](=O)[O-])cc1)[C@@H]23 [DM-123, N-(4-nitrobenzyl) matrinic acid] |  |  | 455.7 (≈ 1130 µM) | 74.0 ± 7.8 | 81.1 ± 6.6 | 104.61 (≈ 261 µM) | 65.9 ± 6.9% | 70.5 ± 2.3% | −1.6 | 
O=C(O)CCCC1C2CCCN3CCCC(CN1Cc1cccc(F)c1)C23 (stereo not drawn) [DM-133, N-(3-fluorobenzyl) matrinic acid] |  |  | 527.8 (≈ 1410 µM) | 96.4 ± 0.8 | 98.6 ± 0.8 | 67.33 (≈ 180 µM) | — | — | 0.81 | 
CC(=O)N1C[C@@H]2CCCN3CCC[C@@H](C23)C1CCCC(=O)O (stereo partly drawn) [DM-101, N-acetyl matrinic acid] |  | 196.8 to 198.9 |  |  |  |  |  |  | 0.73 | 
CCOC1CC(=O)N2CC3CCCN4CCCC(C34)C2C1 (stereo not drawn) [Compound 6b, 13-ethoxy matrine] | 74.1 ± 0.11 |  |  |  |  |  |  |  |  | inhibition rate on wild type HBV (wild type HBV): 35%; anti-HCV activity (HCV nucleoprotein and Hsc70 protein levels) (HCV; HCV-infected Huh7.5 cells, 200 μg/mL, Western blotting (FIG. 7B)): significant activity on anti-HCV; activity against HCV (HCV RNA level) (HCV; HCV-infected Huh7.5 cells, 200 μg/mL, real-time RT-PCR): best activity against HCV; inhibition rate on drug-resistant HBV [3]: 32%; oral LD50 ([4]; mice, oral administration once): greater than 1000 mg/kg; death of mice ([4]; oral once, 250, 500 and 750 mg/kg): no mouse died; change of bodyweight ([4]; oral once, 250, 500 and 750 mg/kg (FIG. 11A)): no significant change of bodyweight; AST, ALT, BUN and CRE indexes in blood ([4]; oral, 750 mg/kg dose group (FIG. 11B)): no significant abnormality
O=C(O)CCCC1C2CCCN3CCCC(CN1Cc1cccc([N+](=O)[O-])c1)C23 (stereo not drawn) [DM-137, N-(3-nitrobenzyl) matrinic acid] |  |  | 471.59 (≈ 1170 µM) | 99.8 ± 0.1 | 99.7 ± 0.0 | <12.34 | — | — | 1.31 | 
O=C(O)CCCC1NCC2CCCN3CCCC1C23 (stereo not drawn) [DM-100, matrinic acid] |  | 185.7 to 187.7 |  |  |  |  |  |  | 1.02 | 
O=C1CC(O)CC2C3CCCN4CCCC(CN12)C34 (stereo not drawn) [Compound 5, β-hydroxyl matrine] | 50.4 ± 0.19 | 211 to 213 |  |  |  |  |  |  |  | 
Nc1ccn([C@@H]2CS[C@H](CO)O2)c(=O)n1 [lamivudine, reference compound] |  |  |  |  |  |  |  |  |  | inhibition rate on wild type HBV (wild type HBV): 64%; inhibition rate on drug-resistant HBV [3]: 28%
CC(=O)N1C[C@H]2CCCN3CCC[C@@H](C23)C1CCCC(=O)O (stereo partly drawn) |  | 127.4 to 129.6 |  |  |  |  |  |  |  | 
Cc1ccccc1CN1CC2CCCN3CCCC(C1CCCC(=O)O)C23 (stereo not drawn) [DM-138, N-(2-methylbenzyl) matrinic acid] |  |  | 418.3 (≈ 1130 µM) | 91.5 ± 7.4 | 95.1 ± 2.9 | 82.49 (≈ 223 µM) | 34.8 ± 2.1% | 21.1 ± 12.0% | 1.35 | 
